From patent US20050049276A1, “Imidazopyridines and triazolopyridines” (WARNER-LAMBERT COMPANY, LLC, priority 2003, published 2005)
Counter-ions that a name gives are not always drawn. Like-named read-outs stand apart in the source and are kept apart here.

Experiments:
[1] = test system: MEK (phosphorylation of MAP kinase (ERK) in murine colon 26 (C26) carcinoma cells); experiment: Cellular inhibition of ERK phosphorylation, pERK ELISA format (C26ELSA); type: cell-based; settings: Mus musculus, 1 h, one hour treatment
Text: Otherwise, percent inhibitions at measured concentrations are reported.

[2] = test system: MEK (phosphorylation of MAP kinase (ERK) in murine colon 26 (C26) carcinoma cells); settings: read-out: C26CPA1 IC50, one hour treatment
Description: Since ERK1 and ERK2 represent the only known substrates for MEK1 and MEK2, the measurement of inhibition of ERK phosphorylation in cells provides direct read out of cellular MEK inhibition by the compounds of the invention. Detection of phosphorylation of ERK was carried out either by Western blot or ELISA format. […] Supernatants were then subjected to gel electrophoresis and hybridized to a primary antibody recognizing dually phosphorylated ERK1 and ERK2. To evaluate total MAPK levels, blots were subsequently ‘stripped’ and re-probed with a 1:1 mixture of polyclonal antibodies recognizing unphosphorylated ERK1 and ERK2. For pERK ELISA assay, pERK TiterZyme Enzyme immunometric Assay kits were acquired from Assay Designs, Inc (Ann Arbor, Mich.). Briefly, cells were harvested in lysis solution containing 50 mM β-glycerophosphate, 10 mM HEPES, pH7.4, 70 mM NaCl, 2 mM EDTA and 1% SDS and protein lysates were diluted 1:15 with supplied Assay buffer prior to the execution of the assay. The subsequent steps were carried out essentially as recommended by the manufacturer.

| SMILES | melting point | further results |
| --- | --- | --- |
| Cc1nnc2cc(Nc3ccc(I)cc3F)c(C(N)=O)cn12 [Example 6, 7-(2-Fluoro-4-iodo-phenylamino)-3-methyl-[1,2,4]triazolo[4,3-a]pyridine-6-carboxylic acid amide] | 300 to 310 °C (dec.) |  |
| CCOC(=O)c1cn2ccnc2cc1Nc1ccc(I)cc1F [Example 1, 7-(2-Fluoro-4-iodo-phenylamino)-imidazo[1,2-a]pyridine-6-carboxylic acid ethyl ester] | 132 to 134 °C |  |
| NC(=O)c1cn2ccnc2cc1Nc1ccc(I)cc1F [Example 3, 7-(2-Fluoro-4-iodo-phenylamino)-imidazo[1.2-a]pyridine-6-carboxylic acid amide] |  | IC50 [1]: 1.9 nM |
| CCOC(=O)c1cn2c(C)nnc2cc1Nc1ccc(I)cc1F [Example 5, 7-(2-Fluoro-4-iodo-phenylamino)-3-methyl-[1,2,4]triazolo[4.3-a]pyridine-6-carboxylic acid ethyl ester] | 201 to 204 °C |  |
| O=C(NCCO)C1=CN2CCN=C2C=C1Nc1ccc(I)cc1F [Example 4, 7-(2-Fluoro-4-iodo-phenylamino)-2,3-dihydro-imidazo[1.2-a]pyridine-6-carboxylic acid (2-hydroxy-ethyl)-amide; hydroiodide salt] |  | IC50 [2]: 177 nM |
